Source: patent US11400062B2, “Compositions comprising enzyme-cleavable amphetamine prodrugs and inhibitors thereof” (Signature Therapeutics, Inc., priority 2010, dated 2022)

Assays:
[1] = In vivo tolerability in rats (intravenous); design: species or system rat; details: for dose tolerated by rats: IV
Method: (§1) Male naïve Sprague-Dawley rats, 4 per dose, were used in the study. Rats were weighed, and then placed under a heat lamp for 15-20 minutes to dilate the lateral tail veins. […] Before dosing, rats were placed in Broome restrainers and the drug was introduced into one of the tail veins using a syringe and needle. […] Blood samples were collected 5 minutes post-dose via the saphenous vein. The rats were observed up to 24 hours.
as §1
The protocol to assess the IV tolerability of Compound AM-3 (lisdexamphetamine) was as described in Examples 9 and 13 above.

[2] = Pharmacokinetics of prodrug following PO administration to rats; details: for Cmax / Tmax: male, Sprague Dawley, rat, plasma, po
[3] = molecular target: T1, trypsin from bovine pancreas (Bos taurus, UniProt P00760); test: In vitro trypsin conversion of prodrugs to amphetamine and inhibition by trypsin inhibitor; details: no trypsin inhibitor; 0.761 mM prodrug HCl, 0.0228 mg/ml trypsin, pH 8, 37° C.
T1 sequence (P00760 24-246): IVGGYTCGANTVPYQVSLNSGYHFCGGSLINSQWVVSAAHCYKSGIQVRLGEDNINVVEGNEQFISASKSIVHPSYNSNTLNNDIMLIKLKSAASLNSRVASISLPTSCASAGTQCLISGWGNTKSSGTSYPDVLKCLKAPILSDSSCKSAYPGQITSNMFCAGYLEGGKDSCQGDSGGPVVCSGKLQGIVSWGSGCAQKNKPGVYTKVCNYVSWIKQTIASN

trypsin = molecular target: T2, trypsin (Bos taurus, UniProt P00760); test: as above; details: bovine, trypsin from bovine pancreas; for half-life at 0.761 mM: pH 8; for half-life: pH 8, with Compound 109 (trypsin inhibitor), 2 uM
T2 sequence (P00760 24-246): T1 sequence (P00760 24-246)

[4] = Pharmacokinetics of prodrug following IV administration to rats; details: for Cmax: male, Sprague Dawley, rat, plasma, iv
[5] = rat plasma, AM-4 PO 24 mg/kg (63 μmol/kg)

C[C@@H](Cc1ccccc1)NC(=O)[C@@H](N)CCCCN [Compound AM-3, lisdexamphetamine, reference compound]
time to recover to normal activity ([1]; AM-3 IV 48 μmol/kg): ≤ 120 min | death of the rats ([1]; AM-3 IV 95 μmol/kg): 50% | time to death ([1]; AM-3 IV 95 μmol/kg and 190 μmol/kg): less than 1 min | death of the rats ([1]; AM-3 IV 190 μmol/kg): 100% | Clinical observations ([1]; AM-3 IV 64 mg/kg (190 μmol/kg), 1 rat): Died 10 sec post dose | dose tolerated by rats [1]: 48 µmol/kg | Cmax ([2]; 22 mg/kg): 357 ng/mL | Tmax ([2]; 22 mg/kg): 0.625 ± 0.25 h | Rate of AMP formation, Ave ± sd [3]: not detectable | half-life at 0.761 mM (trypsin): 112 ± 14 h | half-life (trypsin): 393 ± 431 h | Cmax ([4]; 4.5 mg/kg): 1670 ± 580 ng/mL

CC(=O)N[C@@H](CCCNC(=N)N)C(=O)N[C@@H](C)Cc1ccccc1 (stereo in doubt) [Compound AM-1, 2-acetylamino-5-guanidino-pentanoic acid ((R)-1-methyl-2-phenyl-ethyl)-amide]
time to recover to normal activity ([1]; AM-1 IV 87 μmol/kg): ≤ 2 min | dose tolerated by rats [1]: 87 µmol/kg | Cmax ([2]; 24 mg/kg): 1.28 ± 0.81 ng/mL | Tmax ([2]; 24 mg/kg): 0.625 ± 0.43 h | Rate of AMP formation, Ave ± sd [3]: 0.0455 ± 0.0102 umols/h/UBAEE | half-life at 0.761 mM (trypsin): 39.9 ± 0.5 h | half-life (trypsin): 54 ± 4.6 h | Cmax ([4]; 5 mg/kg): 3250 ± 310 ng/mL

C[C@@H](Cc1ccccc1)NC(=O)[C@H](CCCNC(=N)N)NC(=O)CC(=O)O [Compound AM-2, N-[4-guanidino-1-((R)-1-methyl-2-phenyl-ethylcarbamoyl)-butyl]-malonic acid]
time to recover to normal activity ([1]; AM-2 IV 155 μmol/kg): ≤ 30 min | dose tolerated by rats [1]: 155 µmol/kg | Cmax ([2]; 27 mg/kg): 811 ± 850 ng/mL | Tmax ([2]; 27 mg/kg): 0.625 ± 0.25 h | Rate of AMP formation, Ave ± sd [3]: 0.0310 ± 0.0004 umols/h/UBAEE | half-life at 0.761 mM (trypsin): 59.9 ± 17.1 h | half-life (trypsin): 68.5 ± 16.4 h | Cmax ([4]; 6 mg/kg): 2600 ± 260 ng/mL

CC(=O)N[C@@H](CCCCN)C(=O)N[C@@H](C)Cc1ccccc1 [Compound AM-5, Amphetamine-lysine-acetate]
Cmax ([4]; 4.5 mg/kg): 2150 ± 1700 ng/mL

Amphetamine-arginine-N-methyl [Compound AM-4]
AMP Cmax ± sd [2, 5]: 1.92 ± 0.20 ng/mL | AMP Tmax ± sd [2, 5]: 1.00 ± 0.0 h | AMP Cmax ± sd ([4]; rat plasma, AM-4 IV 4.5 mg/kg (12 μmol/kg)): 17.9 ± 3.5 ng/mL
